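Test compounds were applied to cells in 96-well plates for 48 hours at 5 doses. GI50: concentration for 50% inhibition of growth.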 Activity calls are given as the source filed them. Cut-off read from the data, not from the text of the source: active = GI50 up to about 1.1 µM and inactive = higher.
Columns and labels:
Assay in all cases: inhibition of tumour cell growth, NCI panel, 48 h
[1] = tested on: 786-0
[2] = tested on: A549
[3] = tested on: ACHN
[4] = tested on: BT-549
[5] = tested on: CAKI-1
[6] = tested on: COLO 205
[7] = tested on: HCT-15
[8] = tested on: HL-60
[9] = tested on: HOP-62
[10] = tested on: IGROV-1
[11] = tested on: K562
[12] = tested on: KM12
[13] = tested on: MDA-MB-231
[14] = tested on: MDA-N
[15] = tested on: MOLT-4
[16] = tested on: NCI-H460
[17] = tested on: SF-268
[18] = tested on: SK-OV-3
[19] = tested on: SW-620
[20] = tested on: UO-31

| SMILES | GI50 [1] | GI50 [2] | GI50 [3] | GI50 [4] | GI50 [5] | GI50 [6] | GI50 [7] | GI50 [8] | GI50 [9] | GI50 [10] | GI50 [11] | GI50 [12] | GI50 [13] | GI50 [14] | GI50 [15] | GI50 [16] | GI50 [17] | GI50 [18] | GI50 [19] | GI50 [20] |
| --- | --- | --- | --- | --- | --- | --- | --- | --- | --- | --- | --- | --- | --- | --- | --- | --- | --- | --- | --- | --- |
| CCOP(=O)(/C=C/n1ccc(N)nc1=O)OCC | > 100 µM (inactive) | > 100 µM (inactive) | > 100 µM (inactive) | > 100 µM (inactive) | > 100 µM (inactive) | > 100 µM (inactive) | > 100 µM | > 100 µM (inactive) | > 100 µM (inactive) | > 100 µM (inactive) | > 100 µM (inactive) | > 100 µM (inactive) | > 100 µM (inactive) | > 100 µM (inactive) | > 100 µM (inactive) | > 100 µM (inactive) | > 100 µM (inactive) | > 100 µM (inactive) | > 100 µM (inactive) |  |
| CCOC(=O)C1=CNC2=N[C@H]3CCCC[C@@H]3N2C1=O | > 100 µM (inactive) | > 100 µM (inactive) | > 100 µM (inactive) | > 100 µM (inactive) | > 100 µM (inactive) | > 100 µM (inactive) | > 100 µM | > 100 µM (inactive) |  | > 100 µM (inactive) | > 100 µM (inactive) | > 100 µM (inactive) | > 100 µM (inactive) | > 100 µM (inactive) | > 100 µM (inactive) | > 100 µM (inactive) | > 100 µM (inactive) | > 100 µM (inactive) | > 100 µM (inactive) | > 100 µM (inactive) |
| COc1ccccc1N1C(=O)CSC1c1cc(OC)c(OC)c(OC)c1 (centres undefined) | 18.8 µM (inactive) | > 100 µM (inactive) | > 100 µM (inactive) | > 34 µM (inactive) | > 35 µM (inactive) | > 100 µM (inactive) | 50.6 µM | 20.5 µM (inactive) | > 100 µM (inactive) | 33 µM (inactive) | 24.9 µM (inactive) | 21.3 µM (inactive) | > 100 µM (inactive) | 11.9 µM (inactive) | 27.9 µM (inactive) | > 100 µM (inactive) | > 46.1 µM (inactive) |  | 27.5 µM (inactive) | > 76.7 µM (inactive) |
| O=C(C/C(=N/O)C(=O)NC1=C(Cl)C(=O)c2ccccc2C1=O)CC(c1ccccc1)c1c(O)c2ccccc2oc1=O (centres undefined) | 10.4 µM (inactive) | 5.69 µM (inactive) | 19.8 µM (inactive) | 16.4 µM (inactive) | 17.3 µM (inactive) | 13.4 µM (inactive) | 3.16 µM | 2.39 µM (inactive) |  | 4.52 µM (inactive) | 16.3 µM (inactive) | 3.5 µM (inactive) | 4.57 µM (inactive) | 1.72 µM (inactive) | 17.9 µM (inactive) | 3.15 µM (inactive) | 7.35 µM (inactive) | 39 µM (inactive) | 6.58 µM (inactive) | 14.9 µM (inactive) |
| COC(=O)C1(CCC(=O)N(C)c2ccccc2)NNC2C(=O)N(c3ccccc3)C(=O)C21 (centres undefined) | > 10 µM (inactive) | > 10 µM (inactive) | > 10 µM (inactive) | > 10 µM (inactive) | > 10 µM (inactive) | > 10 µM (inactive) | > 10 µM | > 10 µM (inactive) | > 10 µM (inactive) | > 10 µM (inactive) |  | > 10 µM (inactive) | > 10 µM (inactive) | > 10 µM (inactive) |  | > 10 µM (inactive) | > 10 µM (inactive) | > 10 µM (inactive) | > 10 µM (inactive) | > 10 µM (inactive) |
| Clc1nc(Cl)c(Cc2ccccc2)c(Cl)n1 | 2.36 µM (inactive) | 12.5 µM (inactive) | 15.7 µM (inactive) | 3.37 µM (inactive) |  | 6.46 µM (inactive) | 4.55 µM | 7.45 µM (inactive) | 6.17 µM (inactive) | 5.97 µM (inactive) | 3.08 µM (inactive) | 7.87 µM (inactive) | 3.75 µM (inactive) | 3.59 µM (inactive) | 2.98 µM (inactive) | > 10 µM (inactive) | 18.6 µM (inactive) | 11.5 µM (inactive) | 3.09 µM (inactive) | 18.2 µM (inactive) |
| CC(C)(C)OC(=O)NC(Cc1ccc(OC(C)(C)C)cc1)C(=O)N[C@H]1CC[C@H](C(=O)O)C1 (some centres undefined) | > 100 µM (inactive) | > 100 µM (inactive) | > 100 µM (inactive) | 45 µM (inactive) |  | > 100 µM (inactive) | > 100 µM | > 100 µM (inactive) | > 100 µM (inactive) | > 100 µM (inactive) | > 100 µM (inactive) | > 100 µM (inactive) | > 100 µM (inactive) | > 100 µM (inactive) | > 100 µM (inactive) | > 100 µM (inactive) | > 100 µM (inactive) | > 100 µM (inactive) | > 100 µM (inactive) |  |
| CCOC(=O)c1cccc([N+](=O)[O-])c1N | > 100 µM (inactive) | > 100 µM (inactive) | > 100 µM (inactive) | > 100 µM (inactive) | > 100 µM (inactive) | > 100 µM (inactive) | > 100 µM | > 100 µM (inactive) | > 100 µM (inactive) | > 100 µM (inactive) | > 100 µM (inactive) | > 100 µM (inactive) | > 100 µM (inactive) | > 100 µM (inactive) | > 100 µM (inactive) | > 100 µM (inactive) |  | > 100 µM (inactive) | > 100 µM (inactive) | > 100 µM (inactive) |
| CC(O)C1(CNc2cc(Cl)nc(N)n2)CCC1 (centres undefined) | > 100 µM (inactive) | > 100 µM (inactive) | > 100 µM (inactive) | > 100 µM (inactive) | > 100 µM (inactive) |  | > 100 µM | > 100 µM (inactive) | > 100 µM (inactive) | > 100 µM (inactive) | > 100 µM (inactive) | > 100 µM (inactive) | > 100 µM (inactive) | > 100 µM (inactive) | > 100 µM (inactive) | > 100 µM (inactive) |  | > 100 µM (inactive) | > 100 µM (inactive) | > 100 µM (inactive) |
| Cc1c(C#N)c2nnn(-c3ccc([N+](=O)[O-])cc3)c(=O)n2c1-c1ccccc1 | 12.2 µM (inactive) | 10.1 µM (inactive) | 4.95 µM (inactive) | 14.6 µM (inactive) | 12.1 µM (inactive) | 10.4 µM (inactive) | 6.15 µM | 14.7 µM (inactive) | 7.29 µM (inactive) | 15.3 µM (inactive) | 3.37 µM (inactive) | 5.6 µM (inactive) | 17.3 µM (inactive) | 10.2 µM (inactive) |  | 5.86 µM (inactive) | 14.7 µM (inactive) | 24.3 µM (inactive) | 10.2 µM (inactive) | 11.2 µM (inactive) |
| CCN(CC)CCOCC1CCCN2CCCCC12 (centres undefined) | > 100 µM (inactive) | > 100 µM (inactive) | > 100 µM (inactive) | > 100 µM (inactive) | > 100 µM (inactive) | > 100 µM (inactive) | > 100 µM | > 100 µM (inactive) | > 100 µM (inactive) |  | > 100 µM (inactive) | > 100 µM (inactive) | > 100 µM (inactive) | > 100 µM (inactive) | > 100 µM (inactive) | > 100 µM (inactive) | > 100 µM (inactive) | > 100 µM (inactive) | > 100 µM (inactive) | > 100 µM (inactive) |
| CC(=O)O[C@H]1C[C@H]2[C@@H]([C@H](OC(C)=O)C[C@@H]3CC4(CC[C@@]32C)OOC2(CCCCC2)OO4)[C@@H]2CC[C@H]([C@H](C)CCC(N)=O)[C@@]12C | 1.81 µM (inactive) | 1.19 µM (inactive) | 1.63 µM (inactive) | 2.07 µM (inactive) | 0.63 µM (active) | 1.91 µM (inactive) | 2 µM | 1.69 µM (inactive) | 0.817 µM (active) | 0.134 µM (active) | 2.05 µM (inactive) | 1.71 µM (inactive) | 1.95 µM (inactive) | 1.95 µM (inactive) | 0.881 µM (active) | 1.93 µM (inactive) | 1.66 µM (inactive) | 11.6 µM (inactive) | 2.42 µM (inactive) |  |
| COC(=O)[C@H](COC(=O)/C=C/c1ccc(OC(C)=O)c(OC(C)=O)c1)NC(=O)/C=C/c1ccc(OC(C)=O)c(OC(C)=O)c1 | 13.2 µM (inactive) | 30.7 µM (inactive) | 18 µM (inactive) | 16.3 µM (inactive) | 14 µM (inactive) | 18.5 µM (inactive) | 18.8 µM | > 100 µM (inactive) | 17.2 µM (inactive) | 18.5 µM (inactive) | > 100 µM (inactive) | 16.2 µM (inactive) | 17.7 µM (inactive) | 17.1 µM (inactive) | > 100 µM (inactive) | 22.4 µM (inactive) |  | 22.2 µM (inactive) | 30.7 µM (inactive) |  |
| COC(=O)c1ccc(/C=N/c2ccc(S(N)(=O)=O)cc2)cc1 | 57.1 µM (inactive) | > 100 µM (inactive) | 84.3 µM (inactive) | > 100 µM (inactive) | > 100 µM (inactive) | > 100 µM (inactive) | > 100 µM | 97.1 µM (inactive) | > 100 µM (inactive) |  |  | > 100 µM (inactive) | > 100 µM (inactive) | 59.7 µM (inactive) | 38.4 µM (inactive) | > 100 µM (inactive) | > 100 µM (inactive) | > 100 µM (inactive) |  | 74.5 µM (inactive) |
| C[C@]12CC[C@@H]3c4ccc(OS(N)(=O)=O)cc4CC[C@H]3[C@@H]1CCC2=O [EMATE] | 53.3 µM (inactive) | 35 µM (inactive) | 84.9 µM (inactive) | 45 µM (inactive) | > 100 µM (inactive) | 38.7 µM (inactive) | 38 µM | 33 µM (inactive) | 55.2 µM (inactive) | 28.7 µM (inactive) | 24.7 µM (inactive) | 30.5 µM (inactive) | 94 µM (inactive) | 31.6 µM (inactive) |  | 31.6 µM (inactive) | 32.9 µM (inactive) | > 100 µM (inactive) | 44.6 µM (inactive) | 38.7 µM (inactive) |
